Common to all, as to type: biochemical
For test [1], the target named is T1, c-Met (Homo sapiens, UniProt P08581).
T1 construct: Kinases are expressed as either kinase domains or full length constructs; made in house
Nature of the test: Kinase inhibition assay (33P transfer), c-Met. Conditions: Table 2, class symbols A-E; read-out: Met-1. The gist of the method:
(§1)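 Kinase domains or full-length enzymes, GST- or polyHis-tagged, were expressed in E. coli or baculovirus High Five cells and affinity-purified. Transfer of 33PO4 from ATP onto plate-bound poly(Glu,Tyr) 4:1 or poly(Arg,Ser) 3:1 was counted by liquid scintillation after a 0.5% phosphoric acid wash. IC50 = concentration halving incorporation.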

The target of test [2] is T2, AKT (Homo sapiens, UniProt Q9Y243).
T2 construct: Kinases are expressed as either kinase domains or full length constructs; made in house
Put plainly: Kinase inhibition assay (33P transfer), AKT. Conditions: Table 2, class symbols A-E; read-out: AKT3-1. The gist of the method: (§2)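 Steps: express kinase as GST or polyHistidine fusion in E. coli or High Five cells; optionally co-express or mix with regulatory polypeptides; incubate with 33P-ATP and plate-attached poly(Glu,Tyr) 4:1 or poly(Arg,Ser) 3:1; wash with 0.5% phosphoric acid; count by liquid scintillation.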

Test [3] concerns the target T3, ErbB2 (Homo sapiens, UniProt P04626).
T3 construct: Kinases are expressed as either kinase domains or full length constructs; made in house
Put plainly: Kinase inhibition assay (33P transfer), ErbB2. Particulars: read-out: ErbB2-2. The gist of the method:
as §1

Test [4] has as its target T4, EGFR (Homo sapiens, UniProt P00533).
T4 construct: Kinases are expressed as either kinase domains or full length constructs; made in house
Nature of the test: Kinase inhibition assay (33P transfer), EGFR. Conditions: Table 2, class symbols A-E; read-out: EGFR-1. The gist of the method: as §1

Test [5] addresses T5, Lck (Homo sapiens, UniProt P06239).
T5 construct: Kinases are expressed as either kinase domains or full length constructs; made in house
Nature of the test: Kinase inhibition assay (33P transfer), Lck. Conditions: Table 3, class symbols; read-out: Lck-1. An outline of the steps: as §2

In test [6] the target is T6, Kdr (Homo sapiens, UniProt P35968).
T6 construct: Kinases are expressed as either kinase domains or full length constructs; made in house
Nature of the test: Kinase inhibition assay (33P transfer), Kdr. Particulars: Table 3, class symbols; read-out: KDR-1. The gist of the method:
as §2

Test [7] deals with T7, Itk (Homo sapiens, UniProt Q08881).
T7 construct: Kinases are expressed as either kinase domains or full length constructs; made in house
T7 sequence (Q08881 1-620): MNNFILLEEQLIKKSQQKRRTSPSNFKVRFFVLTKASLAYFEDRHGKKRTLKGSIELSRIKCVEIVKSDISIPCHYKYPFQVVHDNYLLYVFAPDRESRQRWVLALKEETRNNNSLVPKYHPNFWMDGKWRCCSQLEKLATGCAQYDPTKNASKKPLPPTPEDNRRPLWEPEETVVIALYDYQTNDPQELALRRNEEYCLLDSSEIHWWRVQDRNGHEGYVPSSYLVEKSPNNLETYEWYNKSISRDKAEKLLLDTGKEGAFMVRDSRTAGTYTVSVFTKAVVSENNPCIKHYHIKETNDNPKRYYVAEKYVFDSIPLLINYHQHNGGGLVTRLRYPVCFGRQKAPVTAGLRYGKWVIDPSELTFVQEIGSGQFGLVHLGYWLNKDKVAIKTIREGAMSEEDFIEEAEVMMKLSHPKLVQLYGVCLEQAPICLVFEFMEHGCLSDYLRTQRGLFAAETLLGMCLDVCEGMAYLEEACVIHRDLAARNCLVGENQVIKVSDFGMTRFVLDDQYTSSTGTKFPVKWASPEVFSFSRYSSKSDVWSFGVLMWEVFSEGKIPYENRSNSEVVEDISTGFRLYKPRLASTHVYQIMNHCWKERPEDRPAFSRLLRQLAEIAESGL
Nature of the test: Kinase inhibition assay (33P transfer), Itk. Conditions: Table 3, class symbols; read-out: Itk-1. An outline of the steps: as §1

The target in test [8] is T8, IGFR-1 (Homo sapiens, UniProt P08069).
T8 construct: Kinases are expressed as either kinase domains or full length constructs; made in house
T8 sequence (P08069 31-1367): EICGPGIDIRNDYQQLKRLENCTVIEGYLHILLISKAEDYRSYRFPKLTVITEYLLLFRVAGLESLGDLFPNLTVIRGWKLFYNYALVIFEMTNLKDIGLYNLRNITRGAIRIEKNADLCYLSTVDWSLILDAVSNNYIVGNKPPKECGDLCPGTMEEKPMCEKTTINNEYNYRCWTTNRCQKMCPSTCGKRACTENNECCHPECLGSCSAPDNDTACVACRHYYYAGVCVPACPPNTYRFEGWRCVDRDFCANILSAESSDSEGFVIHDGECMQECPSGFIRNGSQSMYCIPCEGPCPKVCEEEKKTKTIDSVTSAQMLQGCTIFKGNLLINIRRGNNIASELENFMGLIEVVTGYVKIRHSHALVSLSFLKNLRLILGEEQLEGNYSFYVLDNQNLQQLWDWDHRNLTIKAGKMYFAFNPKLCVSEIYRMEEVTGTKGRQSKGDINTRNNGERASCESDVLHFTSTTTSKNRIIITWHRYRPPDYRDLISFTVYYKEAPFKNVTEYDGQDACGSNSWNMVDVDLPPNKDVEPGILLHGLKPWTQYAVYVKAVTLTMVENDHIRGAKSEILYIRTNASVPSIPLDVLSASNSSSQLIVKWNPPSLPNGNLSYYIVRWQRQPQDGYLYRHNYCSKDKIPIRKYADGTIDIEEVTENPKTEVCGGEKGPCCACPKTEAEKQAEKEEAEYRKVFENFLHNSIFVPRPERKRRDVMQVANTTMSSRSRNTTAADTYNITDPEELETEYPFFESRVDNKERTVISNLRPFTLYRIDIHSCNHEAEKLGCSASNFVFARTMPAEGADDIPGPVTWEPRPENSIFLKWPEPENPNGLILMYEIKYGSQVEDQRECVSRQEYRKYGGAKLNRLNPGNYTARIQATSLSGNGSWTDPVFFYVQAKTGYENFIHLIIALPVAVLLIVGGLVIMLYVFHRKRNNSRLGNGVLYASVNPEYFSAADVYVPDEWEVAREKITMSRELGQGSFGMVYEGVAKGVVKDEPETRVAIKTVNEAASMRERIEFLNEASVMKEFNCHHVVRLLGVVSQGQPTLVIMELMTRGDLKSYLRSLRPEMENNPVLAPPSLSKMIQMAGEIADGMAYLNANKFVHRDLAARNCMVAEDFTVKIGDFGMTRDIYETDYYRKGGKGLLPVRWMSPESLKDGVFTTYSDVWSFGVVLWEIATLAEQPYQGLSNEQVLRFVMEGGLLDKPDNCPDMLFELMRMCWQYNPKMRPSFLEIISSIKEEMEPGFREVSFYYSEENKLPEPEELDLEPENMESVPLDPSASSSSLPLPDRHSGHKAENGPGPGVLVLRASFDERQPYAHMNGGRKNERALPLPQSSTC
Nature of the test: Kinase inhibition assay (33P transfer), IGFR-1. Particulars: Table 2, class symbols A-E.

Test [9] addresses T9, PDGFRB (Homo sapiens, UniProt P09619).
T9 construct: Kinases are expressed as either kinase domains or full length constructs; made in house
Nature of the test: Kinase inhibition assay (33P transfer), PDGFRB. Particulars: read-out: PDGFRB-1.

Test [10] has as its target T10, Zap-70 (Homo sapiens, UniProt P43403).
T10 construct: Kinases are expressed as either kinase domains or full length constructs; made in house
T10 sequence (P43403 1-619): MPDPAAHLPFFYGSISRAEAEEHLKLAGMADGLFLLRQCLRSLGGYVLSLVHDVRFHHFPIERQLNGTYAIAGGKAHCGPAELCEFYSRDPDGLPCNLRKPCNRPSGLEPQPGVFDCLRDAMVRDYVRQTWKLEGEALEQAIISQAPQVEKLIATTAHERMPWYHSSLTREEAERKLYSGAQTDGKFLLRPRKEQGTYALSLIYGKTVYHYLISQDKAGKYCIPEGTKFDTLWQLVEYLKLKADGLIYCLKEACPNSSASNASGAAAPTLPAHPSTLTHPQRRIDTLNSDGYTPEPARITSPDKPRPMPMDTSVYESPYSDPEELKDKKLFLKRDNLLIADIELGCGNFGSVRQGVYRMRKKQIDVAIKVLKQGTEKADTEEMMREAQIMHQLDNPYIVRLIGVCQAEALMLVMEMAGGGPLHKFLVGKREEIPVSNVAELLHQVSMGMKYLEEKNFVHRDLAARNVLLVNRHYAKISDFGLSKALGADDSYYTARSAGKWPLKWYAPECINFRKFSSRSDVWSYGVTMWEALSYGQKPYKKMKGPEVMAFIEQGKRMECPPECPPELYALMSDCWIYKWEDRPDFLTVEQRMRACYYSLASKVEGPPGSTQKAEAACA
Nature of the test: Kinase inhibition assay (33P transfer), Zap-70. Particulars: Table 3, class symbols; read-out: Zap-1. An outline of the steps: as §2

T4 sequence (P00533 25-1210, species assumed): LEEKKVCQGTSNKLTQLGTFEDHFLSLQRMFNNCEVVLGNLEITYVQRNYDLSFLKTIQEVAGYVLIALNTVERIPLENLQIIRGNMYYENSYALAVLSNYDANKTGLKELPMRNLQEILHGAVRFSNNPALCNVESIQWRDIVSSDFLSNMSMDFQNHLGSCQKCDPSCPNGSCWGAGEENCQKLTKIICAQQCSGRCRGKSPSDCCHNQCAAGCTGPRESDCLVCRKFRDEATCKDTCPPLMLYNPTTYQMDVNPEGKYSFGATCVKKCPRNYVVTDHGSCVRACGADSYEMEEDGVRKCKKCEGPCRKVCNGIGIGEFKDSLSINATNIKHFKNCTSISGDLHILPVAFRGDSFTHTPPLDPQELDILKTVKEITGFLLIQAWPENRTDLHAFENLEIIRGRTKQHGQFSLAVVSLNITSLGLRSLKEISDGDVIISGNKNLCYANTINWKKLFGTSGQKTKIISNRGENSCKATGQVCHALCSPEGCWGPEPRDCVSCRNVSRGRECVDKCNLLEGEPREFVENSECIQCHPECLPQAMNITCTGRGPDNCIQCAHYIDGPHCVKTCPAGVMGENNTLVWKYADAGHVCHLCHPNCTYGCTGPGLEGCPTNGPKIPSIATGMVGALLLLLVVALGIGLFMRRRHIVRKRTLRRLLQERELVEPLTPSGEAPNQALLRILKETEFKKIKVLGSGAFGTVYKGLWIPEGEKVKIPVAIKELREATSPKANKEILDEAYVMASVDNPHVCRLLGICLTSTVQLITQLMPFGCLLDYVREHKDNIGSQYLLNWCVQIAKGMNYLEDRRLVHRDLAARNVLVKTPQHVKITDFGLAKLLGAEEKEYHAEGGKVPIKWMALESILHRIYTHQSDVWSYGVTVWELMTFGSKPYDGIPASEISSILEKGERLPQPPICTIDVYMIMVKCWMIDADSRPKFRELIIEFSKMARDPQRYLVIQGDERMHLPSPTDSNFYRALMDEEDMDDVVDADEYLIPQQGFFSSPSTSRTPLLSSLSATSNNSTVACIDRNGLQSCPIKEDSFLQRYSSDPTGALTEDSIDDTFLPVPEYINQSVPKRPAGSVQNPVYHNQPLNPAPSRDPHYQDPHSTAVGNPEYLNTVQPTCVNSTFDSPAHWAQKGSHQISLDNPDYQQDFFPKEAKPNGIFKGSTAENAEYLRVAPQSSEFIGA
T1 sequence (P08581 25-1390): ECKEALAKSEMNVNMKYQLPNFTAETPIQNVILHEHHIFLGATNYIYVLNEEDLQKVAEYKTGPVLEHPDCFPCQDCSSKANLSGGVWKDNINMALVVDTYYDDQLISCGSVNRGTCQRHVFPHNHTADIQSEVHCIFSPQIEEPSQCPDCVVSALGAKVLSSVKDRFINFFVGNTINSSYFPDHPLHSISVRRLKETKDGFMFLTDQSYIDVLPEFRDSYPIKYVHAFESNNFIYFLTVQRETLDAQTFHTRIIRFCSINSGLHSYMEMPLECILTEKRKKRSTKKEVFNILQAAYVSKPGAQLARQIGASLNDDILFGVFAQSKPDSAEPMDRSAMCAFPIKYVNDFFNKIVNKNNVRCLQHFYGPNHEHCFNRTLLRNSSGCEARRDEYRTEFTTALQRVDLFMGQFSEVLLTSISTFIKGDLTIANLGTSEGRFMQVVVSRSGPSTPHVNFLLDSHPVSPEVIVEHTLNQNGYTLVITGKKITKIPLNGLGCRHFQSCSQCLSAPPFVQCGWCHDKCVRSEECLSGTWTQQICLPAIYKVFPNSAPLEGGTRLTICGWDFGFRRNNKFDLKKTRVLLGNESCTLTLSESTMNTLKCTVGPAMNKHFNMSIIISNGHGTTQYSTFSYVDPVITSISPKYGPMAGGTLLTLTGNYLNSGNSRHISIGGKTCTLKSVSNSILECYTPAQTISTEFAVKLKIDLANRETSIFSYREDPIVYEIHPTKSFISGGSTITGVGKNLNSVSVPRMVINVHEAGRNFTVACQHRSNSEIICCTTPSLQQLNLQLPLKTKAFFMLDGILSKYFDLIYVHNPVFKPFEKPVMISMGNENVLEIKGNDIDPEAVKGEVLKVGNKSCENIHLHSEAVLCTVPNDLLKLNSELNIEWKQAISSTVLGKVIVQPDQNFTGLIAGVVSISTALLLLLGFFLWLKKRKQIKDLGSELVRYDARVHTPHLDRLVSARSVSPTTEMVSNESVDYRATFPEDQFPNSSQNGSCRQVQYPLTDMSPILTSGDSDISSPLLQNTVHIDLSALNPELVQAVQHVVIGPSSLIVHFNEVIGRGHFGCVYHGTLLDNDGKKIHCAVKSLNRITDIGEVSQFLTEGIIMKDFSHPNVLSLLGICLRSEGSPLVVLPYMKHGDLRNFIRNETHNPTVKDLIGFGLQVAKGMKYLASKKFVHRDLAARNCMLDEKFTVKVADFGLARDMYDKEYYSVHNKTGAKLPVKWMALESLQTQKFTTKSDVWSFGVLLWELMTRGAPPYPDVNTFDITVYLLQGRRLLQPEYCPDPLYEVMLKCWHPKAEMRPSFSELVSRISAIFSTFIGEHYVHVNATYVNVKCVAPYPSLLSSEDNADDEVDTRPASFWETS
T3 sequence (P04626 23-1255, species assumed): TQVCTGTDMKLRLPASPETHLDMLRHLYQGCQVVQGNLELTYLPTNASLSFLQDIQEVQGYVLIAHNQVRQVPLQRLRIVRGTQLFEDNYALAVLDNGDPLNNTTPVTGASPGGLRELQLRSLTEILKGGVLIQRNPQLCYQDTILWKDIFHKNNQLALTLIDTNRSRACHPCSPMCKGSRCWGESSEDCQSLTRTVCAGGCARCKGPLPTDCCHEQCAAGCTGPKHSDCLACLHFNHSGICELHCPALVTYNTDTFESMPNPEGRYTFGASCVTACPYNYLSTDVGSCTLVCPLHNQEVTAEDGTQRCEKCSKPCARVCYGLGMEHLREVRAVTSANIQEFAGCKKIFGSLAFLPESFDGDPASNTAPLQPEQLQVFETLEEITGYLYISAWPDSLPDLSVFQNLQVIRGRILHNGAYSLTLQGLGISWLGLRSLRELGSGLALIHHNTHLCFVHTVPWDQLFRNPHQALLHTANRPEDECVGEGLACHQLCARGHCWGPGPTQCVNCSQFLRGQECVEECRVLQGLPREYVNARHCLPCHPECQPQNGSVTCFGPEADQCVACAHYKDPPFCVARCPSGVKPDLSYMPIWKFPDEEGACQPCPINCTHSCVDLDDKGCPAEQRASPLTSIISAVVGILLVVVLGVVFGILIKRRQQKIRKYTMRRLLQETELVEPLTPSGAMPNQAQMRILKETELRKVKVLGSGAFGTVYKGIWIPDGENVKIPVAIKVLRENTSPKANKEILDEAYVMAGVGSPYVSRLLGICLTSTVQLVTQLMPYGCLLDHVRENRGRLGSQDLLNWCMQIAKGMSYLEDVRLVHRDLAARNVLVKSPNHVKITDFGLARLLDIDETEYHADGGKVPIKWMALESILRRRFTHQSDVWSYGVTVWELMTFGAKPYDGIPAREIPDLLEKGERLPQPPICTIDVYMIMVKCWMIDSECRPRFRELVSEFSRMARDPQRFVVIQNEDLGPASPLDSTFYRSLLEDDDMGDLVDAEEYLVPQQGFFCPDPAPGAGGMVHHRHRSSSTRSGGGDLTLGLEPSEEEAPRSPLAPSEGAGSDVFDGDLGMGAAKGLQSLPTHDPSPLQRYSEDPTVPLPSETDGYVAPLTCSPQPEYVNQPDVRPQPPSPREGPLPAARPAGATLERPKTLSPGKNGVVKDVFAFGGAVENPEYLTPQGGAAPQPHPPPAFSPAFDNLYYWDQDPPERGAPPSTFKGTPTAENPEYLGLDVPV

For the compound `CCOc1cccc(Nc2ncnc(Nc3cc(-c4ccc(C(=O)OC)cc4)n[nH]3)n2)c1` [Compound 812], the IC50 in test [1] was 0.927 to 5.56 µM; in [2], above 10.4 µM; in [3], 5.56 to 8.11 µM; in test [4], above 10.4 µM; in [5] it was 0.927 to 5.56 µM; in [6], 8.11 to 10.4 µM. Further, the IC50 was 8.11 to 10.4 µM in [7], 0.927 to 5.56 µM in test [8], above 10.4 µM in test [9] and above 10.4 µM in test [10].
On to `COc1cc(Nc2ncnc(-c3cccnc3NC(C)c3cccc4ccccc34)n2)cc(OC)c1OC` (centres unmarked) [Compound 845], for which the IC50 in test [1] is above 8.85 µM; in [2] it was 0.787 to 4.72 µM; in test [3], 4.72 to 6.88 µM; in test [4] it was above 8.85 µM; in test [5], 0.787 to 4.72 µM; in [6], below 0.787 µM. Besides, the IC50 was above 8.85 µM in [7], above 8.85 µM in test [8], 0.787 to 4.72 µM in test [9] and above 8.85 µM in test [10].
Turning to `c1ccc(CNc2ncccc2-c2ncnc(Nc3cccc(Cn4ccnn4)c3)n2)cc1` [Compound 1101], the IC50 was 5.51 to 8.04 µM in [1]; above 10.3 µM in test [2]; above 10.3 µM in [3]; 0.918 to 5.51 µM in test [4]; 5.51 to 8.04 µM in [5]; below 0.918 µM in test [6]. Besides, the IC50 is 5.51 to 8.04 µM in [7], above 10.3 µM in [8], below 0.918 µM in test [9] and above 10.3 µM in test [10].
For the compound `O=C(O)CCNC(=O)c1ccc(Nc2ncnc(Nc3cc(-c4ccco4)[nH]n3)n2)cc1` [Compound 885], the IC50 in [1] is 0.921 to 5.52 µM; in test [2] it was 8.06 to 10.4 µM; in test [3], 0.921 to 5.52 µM; in test [4], 0.921 to 5.52 µM; in test [5], above 10.4 µM; in test [6], below 0.921 µM. For the same compound, the IC50 was 0.921 to 5.52 µM in test [7], 0.921 to 5.52 µM in test [8], 0.921 to 5.52 µM in test [9] and 5.52 to 8.06 µM in [10].
Take `CN(c1cccc(Cl)c1)c1ncnc(Nc2ccc3nn(Cc4ccccc4)cc3c2)n1` [Compound 673]: the IC50 is 0.905 to 5.43 µM in test [1]; above 10.2 µM in test [2]; 5.43 to 7.92 µM in test [3]; below 0.905 µM in [4]; 5.43 to 7.92 µM in [5]; 5.43 to 7.92 µM in test [6]. In addition, the IC50 is above 10.2 µM in [7], above 10.2 µM in test [8], 0.905 to 5.43 µM in [9] and 7.92 to 10.2 µM in [10].
Regarding `COc1ccc(CNc2ncnc(Nc3cc(-c4ccco4)[nH]n3)n2)cc1OC` [Compound 822], the IC50 in test [1] was 6.1 to 8.9 µM; in [2] it was above 11.4 µM; in [3], 6.1 to 8.9 µM; in test [4] it was 1.02 to 6.1 µM; in [5] it was above 11.4 µM; in test [6] it was 8.9 to 11.4 µM. In addition, the IC50 in [7] is 1.02 to 6.1 µM; in test [8], 1.02 to 6.1 µM; in [9] it was 1.02 to 6.1 µM; in test [10], 6.1 to 8.9 µM.
Turning to `COC(=O)c1ccc(-c2cc(Nc3ncnc(Nc4cc(Cl)cc(Cl)c4)n3)[nH]n2)cc1` [Compound 811], the IC50 in [1], in [2], in test [3], in [4], in test [5] and in test [6] was above 9.86 µM throughout. The IC50 in [7] was above 9.86 µM; in test [8], 5.26 to 7.67 µM; in test [9] it was above 9.86 µM; in [10], above 9.86 µM.
For `CN(c1cccc(Cl)c1)c1ncnc(Nc2cccc(Cn3ccnn3)c2)n1` [Compound 678], the IC50 in test [1] was below 1.02 µM; in test [2], above 11.5 µM; in test [3], below 1.02 µM; in test [4], below 1.02 µM; in [5], 1.02 to 6.11 µM; in [6] it was 1.02 to 6.11 µM. Moreover, the IC50 in test [7] is 1.02 to 6.11 µM; in test [8], above 11.5 µM; in test [9], below 1.02 µM; in test [10] it was above 11.5 µM.
In the case of `COc1cc(Nc2ncnc(-c3cccnc3Nc3ccccc3)n2)ccc1NC(=O)CCCN1CCNCC1` [Compound 1093], the IC50 in test [1] is 0.741 to 4.45 µM; in test [2] it was above 8.34 µM; in test [3], above 8.34 µM; in test [4], 0.741 to 4.45 µM; in test [5] it was 0.741 to 4.45 µM; in [6] it was below 0.741 µM. The IC50 in test [7] was 4.45 to 6.49 µM; in [8], 6.49 to 8.34 µM; in test [9] it was below 0.741 µM; in [10] it was above 8.34 µM.
With `COC(=O)c1ccc(-c2cc(Nc3ncnc(NCc4ccco4)n3)[nH]n2)cc1` [Compound 805], the IC50 in test [1] was 6.13 to 8.94 µM; in [2], above 11.5 µM; in test [3], above 11.5 µM; in test [4], above 11.5 µM; in test [5], above 11.5 µM; in test [6], above 11.5 µM. The IC50 is 6.13 to 8.94 µM in test [7], 6.13 to 8.94 µM in test [8], above 11.5 µM in [9] and above 11.5 µM in test [10].
`Fc1ccc(CNc2ncccc2-c2ncnc(Nc3ccc(N4CCOCC4)cc3)n2)cc1` [Compound 1106]: the IC50 in [1] is above 9.84 µM; in test [2], above 9.84 µM; in [3] it was above 9.84 µM; in [4] it was above 9.84 µM; in test [5], above 9.84 µM; in test [6] it was 0.874 to 5.25 µM. Moreover, the IC50 was above 9.84 µM in test [7], above 9.84 µM in test [8], 0.874 to 5.25 µM in test [9] and above 9.84 µM in test [10].
Take `COc1ccc(CNc2nc3ccccc3n2-c2ncnc(Nc3cccc(C(=O)O)c3)n2)cc1` [Compound 1070]: the IC50 in [1] is above 9.63 µM; in [2] it was 5.13 to 7.49 µM; in test [3], above 9.63 µM; in [4] it was above 9.63 µM; in [5], above 9.63 µM; in test [6] it was 0.856 to 5.13 µM. The IC50 in test [7] was above 9.63 µM; in [8], above 9.63 µM; in test [9], 0.856 to 5.13 µM; in test [10], above 9.63 µM.
As for `COc1ccc(Nc2ncnc(N(C)C3CCN(Cc4ccccc4)C3)n2)cc1OC` (centres unmarked) [Compound 802], the IC50 in test [1], in [2], in test [3], in test [4], in [5] and in [6] was above 10.7 µM in each case. Further, the IC50 in test [7] was above 10.7 µM; in test [8], above 10.7 µM; in test [9], 0.951 to 5.71 µM; in test [10] it was above 10.7 µM.
For the compound `COc1cc(Nc2ncnc(-c3cccnc3NC3CCN(Cc4ccccc4)CC3)n2)cc(OC)c1OC` [Compound 847], the IC50 in test [1], in [2], in test [3], in test [4], in test [5] and in [6] was above 8.53 µM throughout. For the same compound, the IC50 in [7], in test [8], in test [9] and in test [10] was above 8.53 µM throughout.

Source of the values: patent US7074789B2, “Kinase inhibitors” (Amgen Inc., priority 1999, dated 2006).
